Data from ChEMBL document CHEMBL1201862, “PubChem BioAssay data set” (2004).
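Protocol summary: plate cells (96-well), add compound at 5 concentrations, incubate 48 h, interpolate endpoints linearly. GI50 is the concentration that inhibits growth by half.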 Activity calls are given as the source filed them. No stated cut-off is given here; in the data, active = GI50 up to about 1.1 µM and inactive = higher.

Experiments:
Assay in all cases: DTP human tumour cell line panel, 48 h
SW-620 = system: SW-620
OVCAR-3 = system: OVCAR-3
SF-295 = system: SF-295
SK-MEL-28 = system: SK-MEL-28
HT-29 = system: HT-29
UACC-257 = system: UACC-257
SN12C = system: SN12C
NCI/ADR-RES = system: NCI/ADR-RES
UO-31 = system: UO-31
MCF7 = system: MCF7
SK-MEL-2 = system: SK-MEL-2
UACC-62 = system: UACC-62
LOX IMVI = system: LOX IMVI
IGROV-1 = system: IGROV-1
U-251 = system: U-251
NCI-H522 = system: NCI-H522
OVCAR-8 = system: OVCAR-8
A498 = system: A498
HL-60 = system: HL-60

Row | SMILES | GI50 (SW-620) | GI50 (OVCAR-3) | GI50 (SF-295) | GI50 (SK-MEL-28) | GI50 (HT-29) | GI50 (UACC-257) | GI50 (SN12C) | GI50 (NCI/ADR-RES) | GI50 (UO-31) | GI50 (MCF7) | GI50 (SK-MEL-2) | GI50 (UACC-62) | GI50 (LOX IMVI) | GI50 (IGROV-1) | GI50 (U-251) | GI50 (NCI-H522) | GI50 (OVCAR-8) | GI50 (A498) | GI50 (HL-60)
1 | COC(=O)Cc1c(C(=O)CC(C)(C)n2cnc(CCN3C(=O)CCC3=O)c2)[nH]c2ccccc12 | > 100 µM (inactive) | > 100 µM (inactive) | > 100 µM (inactive) | > 100 µM (inactive) | > 100 µM (inactive) | > 100 µM (inactive) | > 100 µM (inactive) | > 100 µM (inactive) | 37.5 µM (inactive) | > 100 µM (inactive) | > 100 µM (inactive) | > 100 µM (inactive) | > 100 µM (inactive) | 89.3 µM (inactive) | > 100 µM (inactive) | 32.4 µM (inactive) | > 100 µM (inactive) | – | –
2 | CC(=O)OC(C(=O)NNC(=O)OC(C)(C)C)c1ccccc1 (stereo unspecified) | > 100 µM (inactive) | > 100 µM (inactive) | > 100 µM (inactive) | > 100 µM (inactive) | > 100 µM (inactive) | > 10 µM (inactive) | > 100 µM (inactive) | > 100 µM (inactive) | > 100 µM (inactive) | > 100 µM (inactive) | > 100 µM (inactive) | > 100 µM (inactive) | – | > 100 µM (inactive) | > 100 µM (inactive) | > 100 µM (inactive) | > 100 µM (inactive) | – | –
3 | COC(=O)c1c(C)cccc1/C=C1\Cc2ccc(C)c(C)c2C1=O | > 100 µM (inactive) | > 100 µM (inactive) | > 100 µM (inactive) | > 100 µM (inactive) | > 100 µM (inactive) | > 100 µM (inactive) | > 100 µM (inactive) | – | 28.8 µM (inactive) | > 100 µM (inactive) | > 100 µM (inactive) | 14.5 µM (inactive) | > 100 µM (inactive) | > 100 µM (inactive) | 48.9 µM (inactive) | 78.9 µM (inactive) | > 100 µM (inactive) | 31 µM (inactive) | > 100 µM (inactive)
4 | c1ccc(Cc2nc(Cc3n[nH]c(Cc4ccccc4)n3)n[nH]2)cc1 | > 100 µM (inactive) | > 100 µM (inactive) | > 100 µM (inactive) | > 100 µM (inactive) | > 100 µM (inactive) | > 100 µM (inactive) | > 100 µM (inactive) | > 100 µM (inactive) | > 100 µM (inactive) | > 100 µM (inactive) | > 100 µM (inactive) | > 100 µM (inactive) | > 100 µM (inactive) | > 100 µM (inactive) | > 100 µM (inactive) | > 100 µM (inactive) | > 100 µM (inactive) | – | –
5 | CN(CCC(=O)N1CC(CCl)c2ccc([N+](=O)[O-])cc21)CCC(=O)N1CC(CCl)c2ccc([N+](=O)[O-])cc21 (stereo unspecified) | 15.6 µM (inactive) | 11.5 µM (inactive) | 13.7 µM (inactive) | 15.5 µM (inactive) | 11.7 µM (inactive) | 9.2 µM (inactive) | 19 µM (inactive) | – | – | 11.4 µM (inactive) | 13.2 µM (inactive) | 12.3 µM (inactive) | 7.87 µM (inactive) | – | 24.2 µM (inactive) | 6.53 µM (inactive) | 14.3 µM (inactive) | 19.3 µM (inactive) | –
6 | Cc1ccc(S(=O)(=O)OC2C(C3COC(C)(C)O3)OC3OC(C)(C)OC32)cc1 (stereo unspecified) | > 100 µM (inactive) | > 100 µM (inactive) | > 100 µM (inactive) | > 100 µM (inactive) | > 100 µM (inactive) | > 100 µM (inactive) | > 100 µM (inactive) | > 100 µM (inactive) | > 100 µM (inactive) | – | > 100 µM (inactive) | > 100 µM (inactive) | > 100 µM (inactive) | > 100 µM (inactive) | > 100 µM (inactive) | > 100 µM (inactive) | > 100 µM (inactive) | > 100 µM (inactive) | –
7 | Cc1cccc(/C(Br)=C2/OC(=O)c3ccccc32)c1 | > 100 µM (inactive) | > 100 µM (inactive) | > 100 µM (inactive) | > 100 µM (inactive) | > 100 µM (inactive) | > 100 µM (inactive) | > 100 µM (inactive) | – | – | > 100 µM (inactive) | – | > 100 µM (inactive) | – | > 100 µM (inactive) | > 100 µM (inactive) | > 100 µM (inactive) | > 100 µM (inactive) | > 100 µM (inactive) | > 10 µM (inactive)
8 | C=C1C2C[C@@H]3O[C@H]4C[C@H]5O[C@@]6(C[C@@H]7O[C@]8(C[C@H](C)[C@@H]9O[C@@H]%10CC(C=O)O[C@@H]%10C[C@@H]9O8)C[C@H](C)[C@@H]7O6)C[C@H]5O[C@H]4[C@H](C)[C@H]3OC(=O)C[C@H]3CC[C@@H]4OC5[C@H]6O[C@]7(CC[C@H]8CC(=C)[C@H](CC[C@@H](C[C@H]1C)O2)O8)CC6O[C@@H]5[C@@H](O7)[C@H]4O3 (stereo partly specified) | < 0.0001 µM (active) | < 0.0001 µM (active) | < 0.0001 µM (active) | – | – | < 0.01 µM (active) | 0.000179 µM (active) | 0.000951 µM (active) | < 0.0001 µM (active) | < 0.0001 µM (active) | – | < 0.0001 µM (active) | < 0.0001 µM (active) | < 0.0001 µM (active) | < 0.0001 µM (active) | < 0.0001 µM (active) | < 0.0001 µM (active) | – | –
9 | CC[C@@H](O)C[C@H]1CCC[C@@]2(C[C@@H]3OC(=O)/C=C/[C@@](C)(O)[C@@H](O)[C@H](C)[C@@H](O)[C@H](OC4CCC(N(C)C)C(C)O4)[C@@H](O)[C@](C)(O)CCCCC/C=C/[C@@H]4CC(C)(C)O[C@@]4(O)C[C@H](O2)[C@H]3C)O1 (stereo partly specified) | 16.6 µM (inactive) | 12.9 µM (inactive) | < 0.01 µM (active) | 15.8 µM (inactive) | 3.49 µM (inactive) | < 0.01 µM (active) | 16.4 µM (inactive) | – | < 0.0388 µM (active) | < 0.01 µM (active) | 10.5 µM (inactive) | 6.37 µM (inactive) | 1.82 µM (inactive) | 6.44 µM (inactive) | < 0.01 µM (active) | < 0.01 µM (active) | < 0.01 µM (active) | 19.9 µM (inactive) | 3.75 µM (inactive)
10 | COc1ccccc1/N=N/c1c(O)c(S(=O)(=O)O)cc2cc(S(=O)(=O)O)ccc12 | > 100 µM (inactive) | > 100 µM (inactive) | > 100 µM (inactive) | > 100 µM (inactive) | > 100 µM (inactive) | > 100 µM (inactive) | > 100 µM (inactive) | > 100 µM (inactive) | > 100 µM (inactive) | – | 53.5 µM (inactive) | > 100 µM (inactive) | > 100 µM (inactive) | > 100 µM (inactive) | > 100 µM (inactive) | > 100 µM (inactive) | > 100 µM (inactive) | > 100 µM (inactive) | –
11 | O=C1OC(c2ccco2)=N/C1=C\c1cccc([N+](=O)[O-])c1 | > 100 µM (inactive) | > 100 µM (inactive) | > 100 µM (inactive) | > 100 µM (inactive) | > 100 µM (inactive) | > 100 µM (inactive) | > 100 µM (inactive) | – | – | > 100 µM (inactive) | > 100 µM (inactive) | > 100 µM (inactive) | > 100 µM (inactive) | > 100 µM (inactive) | > 100 µM (inactive) | > 100 µM (inactive) | > 100 µM (inactive) | > 100 µM (inactive) | > 100 µM (inactive)
